Drawing on patent US6756359B2, “C12 modified erythromycin macrolides and ketolides having antibacterial activity” (Chiron Corporation, priority 2001, dated 2004), this text covers MIC for six compounds.

In brackets after ≈: the same amount, converted by molar mass. Some results are limits rather than exact numbers.

Holding throughout (assay): Antibacterial activity in vitro, MIC by broth microdilution
For orientation: Dilution methods test growth across graded concentrations, often in twofold steps.

Assay [1] has as its system E. faecalis Enfa_29212. Type of assay: cell-based. Conditions: Table 5, Strain ID D: E. faecalis Enfa_29212; unit assumed. The protocol:
(§1) Representative compounds of the present invention were assayed in vitro for antibacterial activity against the bacterial isolates listed in Table 1 as follows:
(§2) The bacterial isolates listed in Table 1 were cultivated from −70° C. frozen stocks by two consecutive overnight passages (P1, P2) at 35° C. on 5% blood agar (Remel, Lenexa, Kans.). Chocolate agar (Remel) is used for Haemophilus influenzae. H. influenzae and Streptococcus pneumoniae are incubated in 5-10% CO2.
(§3) To determine the amount of solvent to be used to give the desired final concentration, the formula “weight obtained in mg/final concentration in mg/mL” will be used. It will give the amount of solvent in mL needed to be added to give the desired concentration. For example, if 2.5 mg/mL is the desired concentration and the weight of compound is 13.7 mg, then the amount of solvent to be added is 3.94 mL (13.7 mg/2.5 mg/mL=3.94 mLs). Methanol is used as the solvent to dissolve the test compounds. Further dilution of stock is done in sterile, deioinzed water. Drug stocks are kept frozen at −70° C., protected from light.
(§4) MICs are determined by the broth microdilution method in accordance with the NCCLS guidelines. In brief, organism suspensions are adjusted to a 0.5 McFarland standard to yield a final inoculum between 3×10^5 and 7×10^5 CFU/mL. Drug dilutions and inocula are made in sterile, cation adjusted Mueller-Hinton Broth (CAMHB) (Remel) for all but S. pneumoniae [CAMHB with 2-5% lysed horse blood (Remel)] and H. influenzae [Haemophilus Test Medium (Remel)]. An inoculum volume of 100 μl is added to wells containing 100 μl of broth with 2-fold serial dilutions of drug. All inoculated microdilution trays are incubated in ambient air at 35° C. for 18-24 hours, except for S. pneumoniae, and H. influenzae (both at 5-10% CO2).
(§5) Following appropriate incubation, the MIC is determined and the MIC is defined as the lowest concentration of the drug that prevented visible growth.

Assay [2] deals with S. aureus Stau_29213. The assay is classed as cell-based. Conditions: Table 5, Strain ID A: S. aureus Stau_29213; unit assumed. The method, then: as §1, §2, §3, §4, §5
Assay [3] concerns S. epidermidis Step_14990. The assay is classed as cell-based. Conditions: Table 5, Strain ID B: S. epidermidis Step_14990; unit assumed. The method, then:
as §1, §2, §3, §4, §5

The subject of assay [4] is S. epidermidis Step_f50654 Pen S. The assay is classed as cell-based. The settings on record: Table 5, Strain ID C: S. epidermidis Step_f50654; unit assumed. The method, then: as §1, §2, §3, §4, §5
The subject of assay [5] is S. pyogenes Stpy_8668. The assay is classed as cell-based. Conditions: Table 5, Strain ID E: S. pyogenes Stpy_8668. The protocol:
as §1, §2, §3, §4, §5

Assay [6] relates to S. pneumoniae Stpn_280-962 Pen S. Type of assay: cell-based, Streptococcus pneumoniae. The settings on record: Table 5, Strain ID H: S. pneumoniae Stpn_280-962. The method, then: as §1, §2, §3, §4, §5
Assay [7] concerns S. pneumoniae Stpn_297-749 Pen R. Type of assay: cell-based, Streptococcus pneumoniae. Conditions: Table 5, Strain ID G: S. pneumoniae Stpn_297-749. The method, then:
as §1, §2, §3, §4, §5

For assay [8], the system named is S. pneumoniae Stpn_49619. The assay is classed as cell-based, Streptococcus pneumoniae. The settings on record: Table 5, Strain ID F: S. pneumoniae Stpn_49619. The method, then:
as §1, §2, §3, §4, §5

Assay [9] concerns S. pneumoniae Stpn_Erm 6849. The assay is classed as cell-based, Streptococcus pneumoniae. Conditions: Table 5, Strain ID I: S. pneumoniae Stpn_Erm 6849. The protocol:
as §1, §2, §3, §4, §5

For assay [10], the system named is S. pneumoniae Stpn_Erm S 4297. Type of assay: cell-based, Streptococcus pneumoniae. Conditions: Table 5, Strain ID J: S. pneumoniae Stpn_Erm S 4297. The method, then: as §1, §2, §3, §4, §5
The test system of assay [11] is S. pneumoniae Stpn_Mef 5654. Type of assay: cell-based, Streptococcus pneumoniae. The settings on record: Table 5, Strain ID K: S. pneumoniae Stpn_Mef 5654; unit assumed. The method, then:
as §1, §2, §3, §4, §5

The test system of assay [12] is S. pneumoniae Stpn_Mef S 3427. Type of assay: cell-based, Streptococcus pneumoniae. The settings on record: Table 5, Strain ID L: S. pneumoniae Stpn_Mef S 3427. The method, then:
as §1, §2, §3, §4, §5

The subject of assay [13] is H. influenzae Hain_49247. The assay is classed as cell-based, Haemophilus influenzae. The settings on record: Table 5, Strain ID M: H. influenzae Hain_49247; unit assumed. The method, then:
as §1, §2, §3, §4, §5

As for `CC[C@H]1OC(=O)[C@H](C)C(=O)[C@H](C)[C@@H](OC2O[C@H](C)C[C@H](N(C)C)[C@H]2O)[C@@](C)(OC)C[C@@H](C)C(=O)[C@H](C)[C@H]2N(CCCCn3cnc(-c4ccncc4)c3)C(=O)O[C@]12CC` (stereo partly drawn) [Example 28, (3aS,4R,7R,9R,10R,11S,13R,15R,15aR)-3a,4-diethyl-11-methoxy-7,9,11,13,15-pentamethyl-2,6,8,14-tetraoxo-1-[4-(4-pyridin-4-yl-1H-imidazol-1-yl)butyl]tetradecahydro-2H-oxacyclotetradecino[4,3-d][1,3]oxazol-10-yl 3,4,6-trideoxy-3-(dimethylamino)-D-xylo-hexopyranoside], the MIC in [1] was 0.1 µg/mL (≈ 0.121 µM); in assay [2], 0.4 µg/mL (≈ 0.484 µM); in assay [3], 0.4 µg/mL (≈ 0.484 µM); in assay [4] it was 0.4 µg/mL (≈ 0.484 µM); in [5], “≦0.05”; in [6] it was “≦0.05”. Also, the MIC result in assay [7] is “≦0.05”; in assay [8], “≦0.05”; in assay [9] (unit assumed), greater than 50 µg/mL; in assay [10] (unit assumed) it was 0.4 µg/mL (≈ 0.484 µM); in [11] it was 0.78 µg/mL (≈ 0.944 µM); in assay [12] (unit assumed), 0.2 µg/mL (≈ 0.242 µM). In assay [13], the MIC was determined as 3.13 µg/mL (≈ 3.79 µM).
For `CC[C@H]1OC(=O)[C@H](C)C(=O)[C@H](C)[C@@H](OC2O[C@H](C)C[C@H](N(C)C)[C@H]2O)[C@@](C)(OC)C[C@@H](C)C(=O)[C@H](C)[C@H]2N(CCCCc3ccc4ccccc4n3)C(=O)O[C@]12CC` (stereo partly drawn) [Example 18, (3aS,4R,7R,9R,10R,11S,13R,15R,15aR)-3a,4-diethyl-11-methoxy-7,9,11,13,15-pentamethyl-2,6,8,14-tetraoxo-1-(4-quinolin-2-ylbutyl)tetradecahydro-2H-oxacyclotetradecino[4,3-d][1,3]oxazol-10-yl 3,4,6-trideoxy-3-(dimethylamino)-D-xylo-hexopyranoside], the MIC in assay [1] was 0.1 µg/mL (≈ 0.123 µM); in assay [2], 0.78 µg/mL (≈ 0.963 µM); in assay [3], 0.4 µg/mL (≈ 0.494 µM); in assay [4], 0.78 µg/mL (≈ 0.963 µM); in assay [5] (unit assumed), 0.1 µg/mL (≈ 0.123 µM); in assay [6], “≦0.05”. The MIC entry in [7] is “≦0.05”; in assay [8], “≦0.05”; in [9] (unit assumed) it was 3.13 µg/mL (≈ 3.86 µM); in assay [10] (unit assumed), 0.2 µg/mL (≈ 0.247 µM); in assay [11], 0.4 µg/mL (≈ 0.494 µM); in assay [12], “≦0.05”. The same compound yielded an MIC in assay [13] of 3.13 µg/mL (≈ 3.86 µM).
As for `CC[C@H]1OC(=O)[C@H](C)C(=O)[C@H](C)[C@@H](OC2O[C@H](C)C[C@H](N(C)C)[C@H]2O)[C@@](C)(OC)C[C@@H](C)C(=O)[C@H](C)[C@H]2N(CCCCc3ncc(-c4cccc(N)c4)s3)C(=O)O[C@]12CC` (stereo partly drawn) [Example 34, (3aS,4R,7R,9R,10R,11S,13R,15R,15aR)-1-{4-[5-(3-aminophenyl)-1,3-thiazol-2-yl]butyl}-3a,4-diethyl-11-methoxy-7,9,11,13,15-pentamethyl-2,6,8,14-tetraoxotetradecahydro-2H-oxacyclotetradecino[4,3-d][1,3]oxazol-10-yl 3,4,6-trideoxy-3-(dimethylamino)-D-xylo-hexopyranoside], the MIC in assay [1] is 0.1 µg/mL (≈ 0.117 µM); in [2] it was 0.4 µg/mL (≈ 0.467 µM); in assay [3] it was 0.2 µg/mL (≈ 0.233 µM); in assay [4], 0.2 µg/mL (≈ 0.233 µM); in assay [5], “≦0.05”; in assay [6], “≦0.05”. The MIC result in assay [7] was “≦0.05”; in assay [8] (unit assumed) it was 3.13 µg/mL (≈ 3.65 µM); in assay [9], “≦0.05”; in [10] (unit assumed), 12.5 µg/mL (≈ 14.6 µM); in assay [11], 0.2 µg/mL (≈ 0.233 µM); in assay [12] (unit assumed), 0.4 µg/mL (≈ 0.467 µM). The same compound came in with an MIC in assay [13] of 0.1 µg/mL (≈ 0.117 µM).
As for `CC[C@H]1OC(=O)[C@H](C)C(=O)[C@H](C)[C@@H](OC2O[C@H](C)C[C@H](N(C)C)[C@H]2O)[C@@](C)(OC)C[C@@H](C)C(=O)[C@H](C)[C@H]2N(CCCCn3cnc(-c4cccnc4)c3C)C(=O)O[C@]12CC` (stereo partly drawn) [Example 21, (3aS,4R,7R,9R,10R,11S,13R,15R,15aR)-3a,4-diethyl-11-methoxy-7,9,11,13,15-pentamethyl-1-[4-(5-methyl-4-pyridin-3-yl-1H-imidazol-1-yl)butyl]-2,6,8,14-tetraoxotetradecahydro-2H-oxacyclotetradecino[4,3-d][1,3]oxazol-10-yl 3,4,6-trideoxy-3-(dimethylamino)-D-xylo-hexopyranoside], the MIC in [1] is 0.1 µg/mL (≈ 0.119 µM); in [2], 0.4 µg/mL (≈ 0.476 µM); in assay [3], 0.4 µg/mL (≈ 0.476 µM); in assay [4], 0.4 µg/mL (≈ 0.476 µM); in assay [5], “≦0.05”; in assay [6], “≦0.05”. Also, the MIC result in [7] is “≦0.05”; in assay [8], “≦0.05”; in assay [9] (unit assumed), 0.2 µg/mL (≈ 0.238 µM); in assay [10] (unit assumed), 0.1 µg/mL (≈ 0.119 µM); in [11], 0.78 µg/mL (≈ 0.928 µM); in [12] (unit assumed), 0.1 µg/mL (≈ 0.119 µM). For the same compound, the MIC in assay [13] was 12.5 µg/mL (≈ 14.9 µM).
Turning to `CC[C@H]1OC(=O)[C@@](C)(F)C(=O)[C@H](C)[C@@H](OC2O[C@H](C)C[C@H](N(C)C)[C@H]2O)[C@@](C)(OC)C[C@@H](C)C(=O)[C@H](C)[C@H]2N(CCCC(C)(C)n3cnc(-c4cccnc4)c3)C(=O)O[C@]12CC` (stereo partly drawn) [Example 32, (3aS,4R,7S,9R,10R,11S,13R,15R,15aR)-3a,4-diethyl-7-fluoro-11-methoxy-7,9,11,13,15-pentamethyl-1-[4-methyl-4-(4-pyridin-3-yl-1H-imidazol-1-yl)pentyl]-2,6,8,14-tetraoxotetradecahydro-2H-oxacyclotetradecino [4,3-d][1,3]oxazol-10-yl 3,4,6-trideoxy-3-(dimethylamino)-D-xylo-hexopyranoside], the MIC in assay [1] was 0.02 µg/mL (≈ 0.0229 µM); in assay [2], 0.2 µg/mL (≈ 0.229 µM); in [3], 0.4 µg/mL (≈ 0.459 µM); in [4] it was 0.4 µg/mL (≈ 0.459 µM); in assay [5], “≦0.05”; in assay [6], “≦0.05”. The MIC result in assay [7] was “≦0.05”; in assay [8], “≦0.05”; in assay [9] (unit assumed) it was 0.2 µg/mL (≈ 0.229 µM); in assay [10], “≦0.05”; in assay [11], 0.78 µg/mL (≈ 0.894 µM); in assay [12] (unit assumed) it was 0.2 µg/mL (≈ 0.229 µM). The compound also gave an MIC in assay [13] of 6.25 µg/mL (≈ 7.17 µM).
Turning to `CC[C@H]1OC(=O)[C@H](C)C(=O)[C@H](C)[C@@H](OC2O[C@H](C)C[C@H](N(C)C)[C@H]2O)[C@@](C)(OC)C[C@@H](C)C(=O)[C@H](C)[C@H]2N(CCCCn3cnc(-c4ccc(F)nc4)c3)C(=O)O[C@]12CC` (stereo partly drawn) [Example 33, (3aS,4R,7R,9R,10R,11S,13R,15R,15aR)-3a,4-diethyl-1-{4-[4-(6-fluoropyridin-3-yl)-1H-imidazol-1-yl]butyl}-11-methoxy-7,9,11,13,15-pentamethyl-2,6,8,14-tetraoxotetradecahydro-2H-oxacyclotetradecino[4,3-d][1,3]oxazol-10-yl 3,4,6-trideoxy-3-(dimethylamino)-D-xylo-hexopyranoside], the MIC was 0.1 µg/mL (≈ 0.118 µM) in assay [1]; 0.4 µg/mL (≈ 0.474 µM) in assay [2]; 0.2 µg/mL (≈ 0.237 µM) in assay [3]; 0.2 µg/mL (≈ 0.237 µM) in assay [4]; “≦0.05” in assay [5]; “≦0.05” in [6]. Further, the MIC entry in [7] was “≦0.05”; in assay [8] (unit assumed), 3.13 µg/mL (≈ 3.71 µM); in assay [9] it was “≦0.05”; in assay [10] (unit assumed), 0.4 µg/mL (≈ 0.474 µM); in assay [11], 0.1 µg/mL (≈ 0.118 µM); in [12] (unit assumed), 0.4 µg/mL (≈ 0.474 µM). This compound also showed an MIC in assay [13] of 0.1 µg/mL (≈ 0.118 µM).
